Molecules are shown by their SMILES.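 Five compound concentrations were applied to cells in 96-well plates for 48 hours; endpoints were derived by simple linear interpolation of the resulting dose-response curve. TGI marks complete inhibition of growth.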

Among the test systems are OVCAR-8 ovarian; SW-620 colon; NCI-H522 lung; MOLT-4 leukemia; KM12 colon; 786-0 renal; RPMI-8226 leukemia; SK-MEL-28 melanoma; OVCAR-3 ovarian; HCT-116 colon.
Experiment in all cases: growth of human tumour cells (NCI), 48 h

Turning to `COC(=O)c1ccc(Nc2nc3nc[nH]c3c(=O)[nH]2)cc1`, the TGI in the experiment with OVCAR-8 ovarian, in the experiment on SW-620 colon, with NCI-H522 lung, with MOLT-4 leukemia, with KM12 colon and with 786-0 renal was > 100 µM in each case. The TGI in the experiment on RPMI-8226 leukemia, with SK-MEL-28 melanoma, in the experiment with OVCAR-3 ovarian and in the experiment on HCT-116 colon was > 100 µM each time.
For the molecule `CN(C)c1cc[n+](-c2nc(/N=C(\[O-])C(F)(F)F)nc3c2ncn3C2CC(O)C(CO)O2)cc1` (stereo not given), the TGI with OVCAR-8 ovarian, in the experiment with SW-620 colon, in the experiment on NCI-H522 lung, with MOLT-4 leukemia, in the experiment with KM12 colon and in the experiment on 786-0 renal was > 100 µM in each case. The TGI in the experiment with RPMI-8226 leukemia, in the experiment with SK-MEL-28 melanoma, in the experiment with OVCAR-3 ovarian and in the experiment on HCT-116 colon was > 100 µM in each case.
Consider `CC(=O)N(O)c1ccc(-c2nc3ccccc3s2)cc1`, for which the TGI in the experiment on OVCAR-8 ovarian is > 100 µM; in the experiment on SW-620 colon, > 100 µM; in the experiment on NCI-H522 lung it was 97.2 µM; in the experiment on MOLT-4 leukemia, > 100 µM; with KM12 colon, > 100 µM; in the experiment on 786-0 renal, > 100 µM. Moreover, the TGI in the experiment on RPMI-8226 leukemia, in the experiment on SK-MEL-28 melanoma, in the experiment with OVCAR-3 ovarian and in the experiment with HCT-116 colon was > 100 µM in each case.
For the molecule `O=C1Nc2ccccc2/C1=c1\[nH]c(=O)/c(=C\c2ccc(OCc3ccccc3)cn2)[nH]c1=O`, the TGI with OVCAR-8 ovarian, in the experiment on SW-620 colon, in the experiment on NCI-H522 lung, in the experiment with MOLT-4 leukemia, in the experiment with KM12 colon and in the experiment with 786-0 renal was > 100 µM throughout. The TGI with RPMI-8226 leukemia, in the experiment with SK-MEL-28 melanoma, with OVCAR-3 ovarian and in the experiment on HCT-116 colon was > 100 µM in each case.
`CSc1c(C(=O)Nc2ccc(Cl)cc2)c(N)n(N)c(=O)c1C#N`: the TGI with OVCAR-8 ovarian, in the experiment on SW-620 colon, with NCI-H522 lung, in the experiment on MOLT-4 leukemia, in the experiment with KM12 colon and with 786-0 renal was > 100 µM in each case. Besides, the TGI in the experiment with RPMI-8226 leukemia, in the experiment on SK-MEL-28 melanoma, in the experiment with OVCAR-3 ovarian and in the experiment on HCT-116 colon was > 100 µM in each case.
Turning to `O=C1C(CN2CCOCC2)CCCC1CN1CCOCC1` (stereo not given), the TGI with OVCAR-8 ovarian was found to be 9.31 µM; in the experiment on SW-620 colon, 0.911 µM; in the experiment on NCI-H522 lung, 0.156 µM; with MOLT-4 leukemia, 2.33 µM; in the experiment on KM12 colon, 17.8 µM; in the experiment with 786-0 renal, 2.61 µM. Moreover, the TGI turned out to be 2.34 µM in the experiment on RPMI-8226 leukemia, 3.83 µM with SK-MEL-28 melanoma, 8.21 µM in the experiment with OVCAR-3 ovarian and 2.83 µM in the experiment with HCT-116 colon.
As to `CC(C)(C)OC(=O)NCCCCC(NC(=O)c1ccccc1)C(N)=O` (stereo not given), the TGI in the experiment on OVCAR-8 ovarian, with SW-620 colon, in the experiment on NCI-H522 lung, in the experiment on MOLT-4 leukemia, in the experiment on KM12 colon and in the experiment on 786-0 renal was > 100 µM throughout. Besides, the TGI in the experiment with RPMI-8226 leukemia, with SK-MEL-28 melanoma, in the experiment on OVCAR-3 ovarian and in the experiment with HCT-116 colon was > 100 µM throughout.
Consider `COc1cc(C2c3cc4c(cc3OC(NCCO)C2C)OCO4)cc(OC)c1OC` (stereo not given), for which the TGI in the experiment with OVCAR-8 ovarian was > 100 µM; in the experiment with SW-620 colon, > 100 µM; in the experiment on NCI-H522 lung, 1.62 µM; in the experiment with MOLT-4 leukemia, 26.3 µM; in the experiment on KM12 colon it was > 70.2 µM; in the experiment on 786-0 renal it was > 100 µM. In addition, the TGI in the experiment on RPMI-8226 leukemia was > 34 µM; with SK-MEL-28 melanoma it was > 100 µM; in the experiment with OVCAR-3 ovarian, 0.603 µM; in the experiment with HCT-116 colon it was > 100 µM.
As to `COc1ccc(/C=N/n2cnc3[nH]c(C)c(Cc4ccccc4)c3c2=N)cc1`, the TGI in the experiment on OVCAR-8 ovarian, in the experiment with SW-620 colon, with NCI-H522 lung, with MOLT-4 leukemia, with KM12 colon and in the experiment with 786-0 renal was > 100 µM throughout. Further, the TGI in the experiment with RPMI-8226 leukemia, with SK-MEL-28 melanoma, in the experiment with OVCAR-3 ovarian and in the experiment with HCT-116 colon was > 100 µM each time.
Consider `O=[N+]([O-])c1ccc(O)c(/C=N/NC(=S)N2CCCCC2)c1`, for which the TGI in the experiment on OVCAR-8 ovarian is 4.66 µM; in the experiment on SW-620 colon, > 59 µM; in the experiment on NCI-H522 lung, > 45.3 µM; with MOLT-4 leukemia, > 44.4 µM; in the experiment with KM12 colon it was 40 µM; in the experiment on 786-0 renal, 13.8 µM. The TGI in the experiment on RPMI-8226 leukemia is > 52.4 µM; in the experiment with SK-MEL-28 melanoma, > 100 µM; with OVCAR-3 ovarian it was > 100 µM; in the experiment with HCT-116 colon it was 40.3 µM.
Take `C[N+]1(CCN[N+]2(C)CCCCC2)CCc2ccccc2C1` (stereo not given): the TGI with OVCAR-8 ovarian, in the experiment on SW-620 colon, with NCI-H522 lung, in the experiment on MOLT-4 leukemia, in the experiment with KM12 colon and with 786-0 renal was > 100 µM throughout. Moreover, the TGI with RPMI-8226 leukemia, in the experiment with SK-MEL-28 melanoma, in the experiment on OVCAR-3 ovarian and in the experiment with HCT-116 colon was > 100 µM in each case.
For `NC(Cc1ccc(S(=O)(=O)O)cc1)C(=O)NC(Cc1ccc(S(=O)(=O)O)cc1)C(=O)O` (stereo not given), the TGI in the experiment with OVCAR-8 ovarian, with SW-620 colon, in the experiment on NCI-H522 lung, in the experiment with MOLT-4 leukemia, with KM12 colon and in the experiment on 786-0 renal was > 100 µM in each case. The TGI with RPMI-8226 leukemia, with SK-MEL-28 melanoma, with OVCAR-3 ovarian and with HCT-116 colon was > 100 µM in each case.
For `CCOC(=O)Cc1nc2c(N)ncnc2n1C1OC(COC(C)=O)C(OC(C)=O)C1OC(C)=O` (stereo not given), the TGI with OVCAR-8 ovarian, with SW-620 colon, in the experiment on NCI-H522 lung, in the experiment on MOLT-4 leukemia, in the experiment on KM12 colon and in the experiment on 786-0 renal was > 100 µM throughout. Besides, the TGI in the experiment on RPMI-8226 leukemia, in the experiment with SK-MEL-28 melanoma, in the experiment on OVCAR-3 ovarian and in the experiment with HCT-116 colon was > 100 µM each time.
As for `COc1cc(C2c3cc4c(cc3OC(N3CCNCC3)C2C)OCO4)cc(OC)c1OC` (stereo not given), the TGI was > 37.8 µM in the experiment with OVCAR-8 ovarian; 17.3 µM in the experiment on SW-620 colon; 8.32 µM with NCI-H522 lung; 14.4 µM in the experiment with MOLT-4 leukemia; 9.87 µM in the experiment on KM12 colon; 15.7 µM in the experiment with 786-0 renal. The TGI with RPMI-8226 leukemia is 17.3 µM; in the experiment on SK-MEL-28 melanoma, 38.6 µM; in the experiment on OVCAR-3 ovarian, 0.512 µM; in the experiment with HCT-116 colon it was 9.23 µM.

Values taken from PubChem BioAssay (NCI).
